PMC12604922, “Synthesis, biological evaluation, and theoretical studies of 2-amino-3-cyano-4- (L-phenylalaninyl)quinolines: anticancer potential and EGFR inhibition” (Turkish Journal of Chemistry, 2025)
Like-named read-outs stand apart in the source and are kept apart here.

Legend:
[1] = tested on: A549 (human lung adenocarcinoma) cells; test: MTT cytotoxicity assay (24 h), A549; settings: A549, 24 h, read-out: IC50 (μM) A549, A549 cells, 24 h MTT
Description: (§1) The synthesized compounds were evaluated for anticancer activity against two cell lines: human lung adenocarcinoma (A549) and human breast adenocarcinoma (MCF-7). To assess selectivity, the compounds were also tested on healthy mouse embryonic fibroblast (NIH3T3) cells. The culture medium was supplemented with fetal calf serum, 100 IU/mL penicillin, and 100 μg/mL streptomycin. […] The cytotoxic effects of the compounds were measured using the MTT assay, as described previously [26–28].

[2] = tested on: MCF-7 (human breast adenocarcinoma) cells; test: MTT cytotoxicity assay (24 h), MCF-7
Description: as §1

[3] = tested on: NIH3T3 (healthy mouse embryonic fibroblast) cells; test: MTT cytotoxicity assay (24 h), NIH3T3; settings: for IC50: Mus musculus, NIH3T3, 24 h, read-out: IC50 (μM) NIH3T3; for Toxicity in NIH3T3 cell line: at concentrations effective against the A549 and MCF-7 cell lines
Description: as §1

wild-type EGFR = molecular target: T1, wild-type EGFR (Homo sapiens, UniProt P00533); test: EGFR inhibition assay (luminescence kinase kit, Kinase-Glo Max); type: biochemical; settings: recombinant wild-type EGFR, 30 °C, 40 min
T1 construct: purchased BPS Bioscience 40321

[4] = Homo sapiens, MCF7, 24 h, read-out: IC50 (μM) MCF7, MCF-7 cells, 24 h MTT
[5] = read-out: IC50 (μM) MCF7, MCF-7 cells, 24 h MTT

T1 sequence (P00533 25-1210): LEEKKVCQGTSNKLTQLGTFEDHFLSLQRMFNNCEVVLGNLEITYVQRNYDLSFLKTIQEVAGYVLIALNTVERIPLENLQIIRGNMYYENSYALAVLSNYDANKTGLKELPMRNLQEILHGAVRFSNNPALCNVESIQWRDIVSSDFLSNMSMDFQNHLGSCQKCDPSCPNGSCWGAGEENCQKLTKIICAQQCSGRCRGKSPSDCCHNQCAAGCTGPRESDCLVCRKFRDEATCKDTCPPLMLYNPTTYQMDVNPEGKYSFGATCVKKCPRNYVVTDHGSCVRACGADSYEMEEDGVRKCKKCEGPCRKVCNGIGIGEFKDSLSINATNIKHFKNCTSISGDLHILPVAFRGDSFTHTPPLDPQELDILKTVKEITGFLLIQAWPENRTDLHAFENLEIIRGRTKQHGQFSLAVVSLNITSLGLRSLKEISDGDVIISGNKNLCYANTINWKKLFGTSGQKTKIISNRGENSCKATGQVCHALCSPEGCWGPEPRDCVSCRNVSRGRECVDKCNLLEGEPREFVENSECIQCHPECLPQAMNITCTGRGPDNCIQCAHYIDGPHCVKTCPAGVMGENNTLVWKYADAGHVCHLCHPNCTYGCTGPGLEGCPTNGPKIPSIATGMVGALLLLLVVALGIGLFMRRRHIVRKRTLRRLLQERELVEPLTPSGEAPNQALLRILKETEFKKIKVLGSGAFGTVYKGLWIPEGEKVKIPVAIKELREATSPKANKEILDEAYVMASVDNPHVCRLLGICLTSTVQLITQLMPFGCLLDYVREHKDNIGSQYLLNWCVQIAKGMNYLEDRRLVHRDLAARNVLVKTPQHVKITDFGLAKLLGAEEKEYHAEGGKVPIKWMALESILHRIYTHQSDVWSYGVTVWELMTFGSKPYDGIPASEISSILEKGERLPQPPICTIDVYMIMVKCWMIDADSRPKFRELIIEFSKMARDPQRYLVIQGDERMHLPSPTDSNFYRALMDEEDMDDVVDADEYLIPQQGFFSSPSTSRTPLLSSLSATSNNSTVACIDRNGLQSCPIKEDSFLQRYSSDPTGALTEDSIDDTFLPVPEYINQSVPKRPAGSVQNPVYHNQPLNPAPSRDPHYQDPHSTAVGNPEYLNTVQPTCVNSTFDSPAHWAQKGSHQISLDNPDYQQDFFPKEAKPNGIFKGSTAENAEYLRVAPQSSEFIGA

Compound | IC50 [1] [µM] | IC50 [2, 4] [µM] | IC50 [3] [µM] | IC50 (wild-type EGFR) [µM] | IC50 [2, 5] [µM] | Toxicity in NIH3T3 cell line [3]
COC(=O)[C@H](Cc1ccccc1)Nc1c(C#N)c(N)nc2ccccc12 [Compound 4a, methyl (2-amino-3-cyanoquinolin-4-yl)-L-phenylalaninate] | > 100 | > 100 | > 100 | – | – | –
COC(=O)[C@H](Cc1ccccc1)Nc1c(C#N)c(N)nc2cc(C)ccc12 [Compound 4b, methyl (2-amino-3-cyano-7-methylquinolin-4-yl)-L-phenylalaninate] | > 100 | > 100 | > 100 | – | – | –
COC(=O)[C@H](Cc1ccccc1)Nc1c(C#N)c(N)nc2cc(F)ccc12 [Compound 4c, methyl (2-amino-3-cyano-7-fluoroquinolin-4-yl)-L-phenylalaninate] | 23.6 ± 0.523 | 27.2 ± 1.01 | 30.5 ± 1.32 | – | – | –
COC(=O)[C@H](Cc1ccccc1)Nc1c(C#N)c(N)nc2cc(Cl)ccc12 [Compound 4d, methyl (2-amino-7-chloro-3-cyanoquinolin-4-yl)-L-phenylalaninate] | – | < 10 | > 100 | 0.069 ± 0.0027 | 7.71 ± 0.217 | nontoxic
COC(=O)[C@H](Cc1ccccc1)Nc1c(C#N)c(N)nc2ccc(Cl)cc12 [Compound 4e, methyl (2-amino-6-chloro-3-cyanoquinolin-4-yl)-L-phenylalaninate] | – | < 10 | 56.3 ± 2.06 | 0.058 ± 0.0026 | 6.11 ± 0.272 | nontoxic
COC(=O)[C@H](Cc1ccccc1)Nc1c(C#N)c(N)nc2ccc(Br)cc12 [Compound 4f, methyl (2-amino-6-bromo-3-cyanoquinolin-4-yl)-L-phenylalaninate] | > 100 | > 100 | > 100 | – | – | –
COc1cccc2c1C(=O)c1c(O)c3c(c(O)c1C2=O)C[C@@](O)(C(=O)CO)C[C@@H]3O[C@H]1C[C@H](N)[C@H](O)[C@H](C)O1 [Doxorubicin, reference compound] | 11 ± 0.247 | – | > 100 | – | – | –
